Laboratory results published in patent US12686699B2, “Crystalline forms of squalamine” (priority 2020, dated 2026).
Entries after “also recorded” stand apart in the source; their conditions may differ. Where two headings read alike, the source gives them in different places.

Experiments:
Assay type in all cases: physicochemical
[1] = Solubility in biorelevant media (shake-flask)
Description: The experiments were performed in triplicate. Approximately 30 mg of API were weighed in the 8 mL glass vials and an aliquot of media was added (see Table 14 for details). […] Upon completion of the equilibration time, the solids were separated from the liquid phases by centrifugation. The mother liquors were filtered using […] PTFE filters and injected at the HPLC to determine the API concentration in solution. The pH was recorded after 3 hours (1 hour for FaSSGF). The recovered ambient-dried solids were analyzed by HT-XRPD.

[2] = Intrinsic dissolution rate determination in FaSSGF; conditions: for IDR: FaSSGF pH 1.6, 37° C., interval 3-30 min (Form A1), 10-45 min (Form C); for API concentration in solution: FaSSGF, 37° C.
Description: The intrinsic dissolution rate of Forms A1 and C was determined in FaSSGF. […] The pressure applied was approximately 40 bar for 2 minutes. The two tablets were placed in 30 mL vials and afterwards the FaSSGF solution pre-warmed at 37° C. […] After FaSSGF addition, stirring was started. The medium (20 mL) was added to vessels containing tablets of Forms A1 and C. The tablets were kept at 37° C. under continuous stirring. […] In the plot shown in FIG. 14, the % concentration of the API in solution is plotted against the time. The dissolution rate (Table 16) was calculated in the interval between 3 and 30 minutes for the experiment started with Form A1, and in the range 10-45 minutes for the experiment started with Form C.

[3] = Dynamic Vapor Sorption (DVS) measurement; conditions: for hygroscopic behavior: 40 to 95% RH
[4] = Variable Humidity XRPD (VH-XRPD); conditions: 30° C., RH profile 40→87→0→60% (Form A1), 40→85→0→60% (Form C)
Description: The powder data were collected on D8 Advance diffractometer using Cu Kα1 radiation (1.54056 Å) with germanium monochromator at 30° C. using the SYCOS H-HOT hot humid chamber produced by Ansyco GmbH. The data were collected in the Bragg-Brentano geometry (locked coupled) from 8 to 35° 2θ on the flat sample holder (without rotation) on solid state LynxEye detector with 0.018° per step with 1 sec/step scan speed. After reaching demanded humidity the sample was relaxed for 5 minutes before measurement. The sample was optionally measured with 2 seconds per step and in the last measurement at RH 0% the relaxation time was elongated to 30 min.
Variable Humidity XRPD (VH-XRPD) measurements were performed on Forms A1 and C to investigate the in-situ phase changes induced by exposure to variable RH levels. Diffractograms of Form A1 were collected at 30° C. with a RH profile of 40→87→0→60% (FIG. 2). Initially, the pattern of Form A1 was distinguished at 40% RH. By increasing the RH level up to 87%, no changes in the XRPD pattern were detected. Furthermore, no changes were observed by lowering the RH from 87% down to 20%.

[5] = Physical stability test of solid forms
Description: Solid samples of Forms A1, B1 and C were incubated at three different conditions to test their physical stability: 80° C., closed vial, 24 hours; 60° C./29% RH, open vial, 48 hours; and 40° C./75% RH, open vial, 48 hours. The solids recovered after the stability studies were analyzed by HR-XRPD, TGMS and DSC.

[6] = Exposure to accelerated aging conditions (AAC); conditions: 40° C./75% RH for 2 days
Source text: The polymorphic behavior of squalamine phosphate (ENT-01) and the physico-chemical properties of two hydrated phases were investigated. A squalamine tetrahydrate, designated Form A1, was identified. The squalamine polymorphism assessment and hydrate screen allowed identification of several squalamine crystalline phases. Among these phases, four squalamine hydrates (Forms B1, B2, C, D) and three mixed squalamine hydrates/solvates (Forms A2, E, F) were identified. All phases converted to squalamine Form A1 upon exposure to accelerated aging conditions (ACC) (2 days at 40° C./75% RH).
In the vacuum-dried solids, a novel pattern very similar to Form A1 but with shifted peaks was identified. This phase was designated Form A2 (see Table 2) and characterized by HT-XRPD. […] Form A2 was identified in several vacuum-dried solids recovered from the hydrate screen experiments.

[7] = FaSSGF (pH 1.6), 37° C., 1 hour
[8] = FaSSIF (pH 6.5), 37° C., 3 hours
[9] = desorption, between 5 and 0% RH
[10] = desorption, between 25 and 5% RH
[11] = first sorption cycle, between 45 and 95% RH
[12] = last sorption cycle, between 25 and 45% RH
[13] = after 40° C./75% RH, open vial, 48 h (TGMS)
[14] = after 60° C./29% RH, open vial, 48 h (TGMS)
[15] = after 80° C., closed vial, 24 h (TGMS)

Row | SMILES | SOLUBILITY [1, 7] | SOLUBILITY [1, 8] | IDR [2] | API concentration in solution ([2]; after 45 minutes) | API concentration in solution ([2]; after 60 minutes) | hygroscopic behavior [3] | change in mass [3, 9] | change in mass [3, 10] | change in mass (water vapor uptake) [3, 11] | change in mass ([3]; last sorption cycle, 0-25% RH) | change in mass (water vapor uptake) [3, 12] | physical stability under variable RH levels [4] | Solid Phase Composition ([5]; 40° C./75% RH, open vial, 48 h) | Solid Phase Composition ([5]; 60° C./29% RH, open vial, 48 h) | Solid Phase Composition ([5]; 80° C., closed vial, 24 h) | Mass loss [5, 13] | Mass loss [5, 14] | Mass loss [5, 15] | other results
1 | CC(C)[C@@H](CC[C@@H](C)[C@H]1CC[C@H]2[C@@H]3[C@H](O)C[C@H]4C[C@@H](NCCCNCCCCN)CC[C@]4(C)[C@H]3CC[C@]12C)OS(=O)(=O)O.O=P(O)(O)O [Form C, squalamine phosphate] | 16.9 mg/mL | practically insoluble | 0.014 mg/min/cm^2 | below 10% | above 20% | slightly hygroscopic | 6% | 7.3% | 3.1% | 8.1% | 1.4% | physically stable in the range 40→85→40% RH | physically stable | converted to Form A1 | converted to Form A1 | 12.6% | 8.7% | 8.8% | SOLUBILITY ([1]; FaSSIF (pH 6.5), 37° C., 3 hours, listed as C): <0.1 mg/mL; SOLUBILITY ([1]; FeSSIF (initial medium pH 5.1), 37° C., 3 hours): ~1 mg/mL; SOLUBILITY ([1]; FeSSIF (initial medium pH 5.1), 37° C., 3 hours, listed as C): 0.9 mg/mL
2 | CC(C)[C@@H](CC[C@@H](C)[C@H]1CCC2C3C(CC[C@@]21C)[C@@]1(C)CC[C@H](NCCCNCCCCN)C[C@@H]1C[C@H]3O)OS(=O)(=O)O.O=P(O)(O)O (stereo partly shown) [Form D, squalamine phosphate] |  |  |  |  |  |  |  |  |  |  |  |  |  |  |  |  |  |  | physical stability upon exposure to AAC [6]: physically unstable
3 | CC(C)[C@@H](CC[C@@H](C)[C@H]1CC[C@H]2[C@@H]3[C@H](O)C[C@H]4C[C@@H](NCCCNCCCCN)CC[C@]4(C)[C@H]3CC[C@]12C)OS(=O)(=O)O.O=P(O)(O)O [Form B1, squalamine phosphate] |  |  |  |  |  |  |  |  |  |  |  |  | converted to Form A1 | converted to Form A1; also recorded: converting to squalamine Form A1 | physically stable | 8.9% | 9.0% | 1.8% | 
4 | CC(C)[C@@H](CC[C@@H](C)[C@H]1CC[C@H]2[C@@H]3[C@H](O)C[C@H]4C[C@@H](NCCCNCCCCN)CC[C@]4(C)[C@H]3CC[C@]12C)OS(=O)(=O)O.O=P(O)(O)O [Form A1, squalamine phosphate] | ~ 9 mg/mL | practically insoluble | 0.049 mg/min/cm^2 | ~20% | above 30% | slightly hygroscopic | 5.3% | 1.7% | 2.1% | 7% | 0.6% | stable in the range 40→87→20% RH; also recorded: started to release water at RH levels below 20% | physically stable | physically stable | physically stable | 9.2% | 8.5% | 9.1% | SOLUBILITY ([1]; 37 °C, pH 1.6, fassgf or other biorelevant, thermodynamic from solid, FaSSGF (pH 1.6), 1 hour, read-out: SOLUBILITY): 9 mg/mL; SOLUBILITY ([1]; 37 °C, pH 5.1, fessif, thermodynamic from solid, FeSSIF (initial medium pH 5.1), 3 hours, read-out: SOLUBILITY): ~1 mg/mL; SOLUBILITY ([1]; 37 °C, pH 6.5, fassif, thermodynamic from solid, FaSSIF (pH 6.5), 3 hours, read-out: SOLUBILITY): < 0.1 mg/mL; SOLUBILITY ([1]; FaSSGF (pH 1.6), 37° C., 1 hour, listed as A1): 8.9 mg/mL; SOLUBILITY ([1]; FeSSIF (initial medium pH 5.1), 37° C., 3 hours, listed as Al): 0.8 mg/mL; change in mass (water absorbed) ([3]; between 35 to 65% RH): 0.7%; change in mass ([3]; desorption, 95-55% RH): 0.9%; change in mass ([3]; desorption, between 45 and 25% RH): 0.6%; change in mass ([3]; desorption, between 55 and 45% RH): 1%
